Results: US20070254871A1, “Compounds for the Treatment of Inflammation of the Central Nervous System” (Neurotec Pharma, S.L., priority 2004, published 2007)

Tested on: microglial reaction in rat hippocampal lesion
Assay: Microglial reaction in rat hippocampal lesion (stereotaxic AMPA injection, IB4 histochemistry)
Type: in vivo
Conditions: for Density of reactive microcytes / Hippocampal microgliosis area: n=4, mean±S.E.M.
Protocol: This model relies on the acute stereotaxic over-activation of rat glutamate hippocampal receptors that results in a neurodegenerative process characterized by a neuronal loss with astroglial and microglial reactions (cf. F. Bernal et al., Hippocampus 2000, vol. 10, pp. 296-304; F. Bernal et al., Exp. Neurol. 2000, vol. 161, pp. 686-95). In this neurodegenerative model rats were anaesthetized with equithesin (a mixture of chloral hydrate and pentobarbital sodium; 0.3 ml/100 g body weight, i.p.) and placed on a Kopf stereotaxic frame with the incisor bar set at −3.3 mm. Intracerebral injections aimed at the dorsal hippocampus were performed at 3.3 mm caudal to bregma, 2.2 mm lateral and 2.9 mm ventral from dura (cf. G. Paxinos et al., “The rat brain in stereotaxic coordinates”, Sydney: Academic Press 1986). A volume of 0.5 μl was injected over a period of 5 min.
Four different groups of rats received two injections in a 2-hour interval as follows: a) sham rats (n=4) received two injections of PBS; b) AMPA rats (α-amino-3-hydroxy-5-methylisoxazole-4-propionic acid) (n=4) received the first injection of 5.4 mM AMPA and the second of PBS; c) diazoxide rats (n=4) received two injections of 50 μM diazoxide; d) AMPA+diazo rats (n=4) received 5.4 mM AMPA+50 μM diazoxide in the first injection and 50 μM diazoxide in the second injection. All rats were sacrificed 24 hours after the lesion.
Rats were transcardially perfused with 300 ml of 0.1 M phosphate buffer (PB, pH 7.4) followed by 300 ml ice-cold fixative (flow rate 20 ml/min). The fixative consisted of 4% (w/v) paraformaldehyde in PB. Brains were removed, crioprotected with 15% (w/v) sucrose in PB and then, frozen with dry ice. Cryostat sections (12 μm) were obtained at the level of dorsal hippocampus (−3.3 mm to bregma). Isolectine B4 (IB4) histochemistry was performed to identify the microglial reaction (cf. C. A. Colton et al., J. Histochem. Cytochem. 1992, vol. 40, pp. 505-12).
Microgliosis area evaluation was performed on IB4 positive stained sections, which were analyzed using a computer-assisted image analysis system (OPTIMAS®, BioScan Inc., Washington, USA). IB4-stained reactive microcytes were counted at ×100 magnification using an ocular grid mounted on a transmission light microscope (Axiolab, Zeiss, Göttingen, Germany). One-way ANOVA was used to compare differences between groups, followed by the LSD post-hoc test. Results were expressed as mean±S.E.M. All analyses were performed with the computer program STATGRAPHICS (STSC Inc., Rockville, Md., USA).

[1] = AMPA+diazo group: 5.4 mM AMPA+50 μM diazoxide in first injection, 50 μM diazoxide in second, 24 hours
[2] = substance alone injected into dorsal hippocampus (diazoxide: two injections of 50 μM; AMPA: 5.4 mM then PBS), 24 hours
[3] = substance alone injected into dorsal hippocampus (diazoxide: two injections of 50 μM; AMPA: 5.4 mM then PBS), sacrificed 24 hours after the lesion

Structure (SMILES): CC1=NS(=O)(=O)c2cc(Cl)ccc2N1 [diazoxide]
- Microgliosis area as % of the AMPA group (AMPA+diazo group versus AMPA group, 24 hours): 37%
- Density of reactive microcytes [1]: 603±56 cells/mm^2
- Hippocampal microgliosis area [1]: 0.16±0.02 mm^2
- Effect on microglial activation (in words) (diazoxide-treated animals compared with AMPA-treated animals): reduces microglial activation to sham values
- Density of reactive microcytes [2]: 555±91 cells/mm^2
- Hippocampal microgliosis area [3]: 0.19±0.03 mm^2

Structure (SMILES): Cc1onc(O)c1CC(N)C(=O)O (stereo not drawn) [AMPA, α-amino-3-hydroxy-5-methylisoxazole-4-propionic acid]
- Density of reactive microcytes [2]: 645±59 cells/mm^2
- Hippocampal microgliosis area [3]: 0.44±0.07 mm^2
